Assays:
Format in all cases: in vivo
Parameters in all cases: key: 0 is no effect; 10 is complete control
[1] = system: smallflower flatsedge (Cyperus difformis); experiment: Test B flood test
Experimental: (§1) At the same time, these crop and weed species were also treated with postemergence applications of test chemicals formulated in the same manner. Plants ranged in height from 2 to 18 cm (1- to 4-leaf stage) for postemergence treatments. Plant species in the flood test consisted of rice (Oryza sativa), smallflower flatsedge (Cyperus difformis), duck salad (Heteranthera limosa) and bamyardgrass (Echinochloa crus-galli) grown to the 2-leaf stage for testing. Treated plants and controls were maintained in a greenhouse for twelve to sixteen days, after which all species were compared to controls and visually evaluated. Plant response ratings, summarized in Table B, are based on a scale of 0 to 10 where 0 is no effect and 10 is complete control. A dash (−) response means no test result.

rice (Oryza sativa) = experiment: Test B flood test
Experimental: as §1

[2] = system: duck salad (Heteranthera limosa); experiment: Test B flood test
Experimental: as §1

[3] = system: bamyardgrass (Echinochloa crus-galli); experiment: Test B flood test
Experimental: as §1

[4] = system: sugar beet (Beta vulgaris); experiment: Test B pre-/postemergence; settings: for Plant response rating, Sugarbeets: Preemergence; for Sugarbeets plant response rating: Postemergence
Text: (§2) Seeds of bedstraw (Galium aparine), blackgrass (Alopecurus myosuroides), broadleaf signalgrass (Brachiaria decumbens), cocklebur (Xanthium strumarium), corn (Zea mays), crabgrass (Digitaria sanguinalis), giant foxtail (Setaria faberii), lambsquarters (Chenopodium album), momingglory (Ipomoea hederacea), pigweed (Amaranthus retroflexus), rape (Brassica napus), soybean (Glycine max), sugar beet (Beta vulgaris), velvetleaf (Abutilon theophrasti), wheat (Triticum aestivum), wild oat (Avena fatua) and purple nutsedge (Cyperus rotundus) tubers were planted and treated preemergence with test chemicals formulated in a non-phytotoxic solvent mixture which included a surfactant.
as §1

[5] = system: velvetleaf (Abutilon theophrasti); experiment: Test B pre-/postemergence; settings: for Velvetleaf plant response rating: Postemergence
Text: as §2, §1

[6] = system: wheat (Triticum aestivum); experiment: Test B pre-/postemergence; settings: for Plant response rating, Wheat: Preemergence; for Wheat plant response rating: Postemergence
Text: as §2, §1

[7] = system: crabgrass (Digitaria sanguinalis); experiment: Test B pre-/postemergence; settings: for Plant response rating, Crabgrass: Preemergence; for Crabgrass plant response rating: Postemergence
Text: as §2, §1

[8] = system: broadleaf signalgrass (Brachiaria decumbens); experiment: Test B pre-/postemergence
Text: as §2, §1

[9] = system: cocklebur (Xanthium strumarium); experiment: Test B pre-/postemergence; settings: for Cocklebur plant response rating: Postemergence
Text: as §2, §1

wild oat (Avena fatua) = experiment: Test B pre-/postemergence; settings: for Plant response rating, Wild oats: Preemergence; for Wild oats plant response rating: Postemergence
Text: as §2, §1

[10] = system: giant foxtail (Setaria faberii); experiment: Test B pre-/postemergence; settings: for Plant response rating, Giant foxtail: Preemergence; for Giant foxtail plant response rating: Postemergence
Text: as §2, §1

[11] = system: blackgrass (Alopecurus myosuroides); experiment: Test B pre-/postemergence; settings: for Plant response rating, Blackgrass: Preemergence; for Blackgrass plant response rating: Postemergence
Text: as §2, §1

[12] = system: bedstraw (Galium aparine); experiment: Test B pre-/postemergence; settings: Rate 125 g/ha, Preemergence
Text: as §2, §1

rape (Brassica napus) = experiment: Test B pre-/postemergence; settings: for Plant response rating, Rape: Preemergence; for Rape plant response rating: Postemergence
Text: as §2, §1

[13] = system: momingglory (Ipomoea hederacea); experiment: Test B pre-/postemergence; settings: for Plant response rating, Morningglory: Preemergence; for Morningglory plant response rating: Postemergence
Text: as §2, §1

corn (Zea mays) = experiment: Test B pre-/postemergence; settings: for Plant response rating, Corn: Preemergence; for Corn plant response rating: Postemergence
Text: as §2, §1

[14] = system: pigweed (Amaranthus retroflexus); experiment: Test B pre-/postemergence; settings: for Plant response rating, Redroot pigweed: Preemergence; for Redroot pigweed plant response rating: Postemergence
Text: as §2, §1

soybean (Glycine max) = experiment: Test B pre-/postemergence; settings: for Plant response rating, Soybean: Preemergence; for Soybean plant response rating: Postemergence
Text: as §2, §1

[15] = Rate 62 g/ha, Postemergence (flood test)
[16] = Rate 125 g/ha, Postemergence section (flood test species)
[17] = Rate 250 g/ha, Postemergence (flood test species)

SMILES: CCc1cnc(-n2cnc(C(F)(F)F)c2)nc1C(=O)c1cccc(OC(F)(F)F)c1 [Compound 71]
- S. Flatsedge plant response rating [1, 15]: 0
- S. Flatsedge plant response rating [1, 16]: 2
- Plant response rating, S. Flatsedge [1, 17]: 4
- Rice plant response rating (rice (Oryza sativa); [15]): 2
- Rice plant response rating (rice (Oryza sativa); [16]): 2
- Plant response rating, Rice (rice (Oryza sativa); [17]): 2
- Ducksalad plant response rating [2, 15]: 0
- Ducksalad plant response rating [2, 16]: 0
- Plant response rating, Ducksalad [2, 17]: 2
- Barnyardgrass plant response rating [3, 15]: 2
- Barnyardgrass plant response rating [3, 16]: 2
- Plant response rating, Barnyardgrass [3, 17]: 3
- Plant response rating, Sugarbeets ([4]; Rate 62 g/ha, scale of 0 to 10): 2
- Sugarbeets plant response rating ([4]; Rate 62 g/ha): 8
- Sugarbeets plant response rating ([4]; Rate 125 g/ha): 8
- Plant response rating, Sugarbeets ([4]; Rate 125 g/ha): 3
- Velvetleaf plant response rating ([5]; Rate 62 g/ha): 3
- Velvetleaf plant response rating ([5]; Rate 125 g/ha): 6
- Plant response rating, Velvetleaf ([5]; Rate 125 g/ha, Preemergence): 6
- Plant response rating, Wheat ([6]; Rate 62 g/ha, scale of 0 to 10): 1
- Wheat plant response rating ([6]; Rate 62 g/ha): 4
- Wheat plant response rating ([6]; Rate 125 g/ha): 4
- Plant response rating, Wheat ([6]; Rate 125 g/ha): 3
- Plant response rating, Crabgrass ([7]; Rate 62 g/ha, scale of 0 to 10): 2
- Crabgrass plant response rating ([7]; Rate 62 g/ha): 2
- Crabgrass plant response rating ([7]; Rate 125 g/ha): 3
- Plant response rating, Crabgrass ([7]; Rate 125 g/ha): 2
- B. signalgrass plant response rating ([8]; Rate 62 g/ha, Postemergence): 2
- B. signalgrass plant response rating ([8]; Rate 62 g/ha, Preemergence): 0
- B. signalgrass plant response rating ([8]; Rate 125 g/ha, Postemergence): 2
- Plant response rating, B. signalgrass ([8]; Rate 125 g/ha, Preemergence): 2
- Cocklebur plant response rating ([9]; Rate 62 g/ha): 4
- Cocklebur plant response rating ([9]; Rate 125 g/ha): 4
- Plant response rating, Cocklebur ([9]; Rate 125 g/ha, Preemergence): 0
- Plant response rating, Wild oats (wild oat (Avena fatua); Rate 62 g/ha, scale of 0 to 10): 0
- Wild oats plant response rating (wild oat (Avena fatua); Rate 62 g/ha): 2
- Wild oats plant response rating (wild oat (Avena fatua); Rate 125 g/ha): 2
- Plant response rating, Wild oats (wild oat (Avena fatua); Rate 125 g/ha): 3
- Plant response rating, Giant foxtail ([10]; Rate 62 g/ha, scale of 0 to 10): 1
- Giant foxtail plant response rating ([10]; Rate 62 g/ha): 2
- Giant foxtail plant response rating ([10]; Rate 125 g/ha): 2
- Plant response rating, Giant foxtail ([10]; Rate 125 g/ha): 2
- Plant response rating, Blackgrass ([11]; Rate 62 g/ha, scale of 0 to 10): 1
- Blackgrass plant response rating ([11]; Rate 62 g/ha): 2
- Blackgrass plant response rating ([11]; Rate 125 g/ha): 3
- Plant response rating, Blackgrass ([11]; Rate 125 g/ha): 2
- Plant response rating, Bedstraw [12]: 1
- Plant response rating, Rape (rape (Brassica napus); Rate 62 g/ha, scale of 0 to 10): 2
- Rape plant response rating (rape (Brassica napus); Rate 62 g/ha): 5
- Rape plant response rating (rape (Brassica napus); Rate 125 g/ha): 7
- Plant response rating, Rape (rape (Brassica napus); Rate 125 g/ha): 7
- Plant response rating, Morningglory ([13]; Rate 62 g/ha, scale of 0 to 10): 2
- Morningglory plant response rating ([13]; Rate 62 g/ha): 1
- Morningglory plant response rating ([13]; Rate 125 g/ha): 6
- Plant response rating, Morningglory ([13]; Rate 125 g/ha): 4
- Plant response rating, Corn (corn (Zea mays); Rate 62 g/ha, scale of 0 to 10): 1
- Corn plant response rating (corn (Zea mays); Rate 62 g/ha): 2
- Corn plant response rating (corn (Zea mays); Rate 125 g/ha): 3
- Plant response rating, Corn (corn (Zea mays); Rate 125 g/ha): 1
- Plant response rating, Redroot pigweed ([14]; Rate 62 g/ha, scale of 0 to 10): 6
- Redroot pigweed plant response rating ([14]; Rate 62 g/ha): 8
- Redroot pigweed plant response rating ([14]; Rate 125 g/ha): 8
- Plant response rating, Redroot pigweed ([14]; Rate 125 g/ha): 8
- Plant response rating, Soybean (soybean (Glycine max); Rate 62 g/ha, scale of 0 to 10): 0
- Soybean plant response rating (soybean (Glycine max); Rate 62 g/ha): 3
- Soybean plant response rating (soybean (Glycine max); Rate 125 g/ha): 4
- Plant response rating, Soybean (soybean (Glycine max); Rate 125 g/ha): 0
